For 24 compounds, Ki results are on record in patent US10174037B2, “Dihydropyrazolopyrimidinone compounds as PDE2 inhibitors” (Merck Sharp & Dohme Corp., priority 2015, dated 2019).

Structures are written as SMILES. Like-named read-outs stand apart in the source and are kept apart here.

Test [1] concerns the target Rhesus PDE2A3 (Macaca mulatta, UniProt B3VTJ2). Nature of the test: PDE2 fluorescence polarization (IMAP FP) assay, rhesus PDE2A3. The format is biochemical, rhesus macaque. (In fluorescence polarisation assays a small probe gives low polarisation when free and higher when bound to something large.)
In test [2] the target is human PDE2A1 (Homo sapiens (Human), UniProt O00408). As to the kind of experiment: PDE selectivity IMAP FP assay, human PDE2A1. The format is biochemical. The settings on record: Human PDE2. In outline:
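Compound titrations run against PDE2 in Tris HCl pH 7.2 buffer with MgCl2 and DTT for 60 min at room temperature, using 50 nM FAM-cAMP plus 1000 nM cGMP and enzyme giving 20% conversion.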

The mark [3] stands for this setting: Lab B, read-out: Rhesus PDE2 Ki (nM) Lab B.
Setting [4] is: Lab B, read-out: Human PDE2 Ki (nM) Lab B.
Where [5] appears, read: Lab A, read-out: Rhesus PDE2 Ki (nM) Lab A.
[6] abbreviates: Lab A, read-out: Human PDE2 Ki (nM) Lab A.

A word on the Ki: it is the equilibrium dissociation constant of an inhibitor or competing ligand from its target.

Chain of human PDE2A1 (O00408 other isoform, or with tags, fused parts or gaps): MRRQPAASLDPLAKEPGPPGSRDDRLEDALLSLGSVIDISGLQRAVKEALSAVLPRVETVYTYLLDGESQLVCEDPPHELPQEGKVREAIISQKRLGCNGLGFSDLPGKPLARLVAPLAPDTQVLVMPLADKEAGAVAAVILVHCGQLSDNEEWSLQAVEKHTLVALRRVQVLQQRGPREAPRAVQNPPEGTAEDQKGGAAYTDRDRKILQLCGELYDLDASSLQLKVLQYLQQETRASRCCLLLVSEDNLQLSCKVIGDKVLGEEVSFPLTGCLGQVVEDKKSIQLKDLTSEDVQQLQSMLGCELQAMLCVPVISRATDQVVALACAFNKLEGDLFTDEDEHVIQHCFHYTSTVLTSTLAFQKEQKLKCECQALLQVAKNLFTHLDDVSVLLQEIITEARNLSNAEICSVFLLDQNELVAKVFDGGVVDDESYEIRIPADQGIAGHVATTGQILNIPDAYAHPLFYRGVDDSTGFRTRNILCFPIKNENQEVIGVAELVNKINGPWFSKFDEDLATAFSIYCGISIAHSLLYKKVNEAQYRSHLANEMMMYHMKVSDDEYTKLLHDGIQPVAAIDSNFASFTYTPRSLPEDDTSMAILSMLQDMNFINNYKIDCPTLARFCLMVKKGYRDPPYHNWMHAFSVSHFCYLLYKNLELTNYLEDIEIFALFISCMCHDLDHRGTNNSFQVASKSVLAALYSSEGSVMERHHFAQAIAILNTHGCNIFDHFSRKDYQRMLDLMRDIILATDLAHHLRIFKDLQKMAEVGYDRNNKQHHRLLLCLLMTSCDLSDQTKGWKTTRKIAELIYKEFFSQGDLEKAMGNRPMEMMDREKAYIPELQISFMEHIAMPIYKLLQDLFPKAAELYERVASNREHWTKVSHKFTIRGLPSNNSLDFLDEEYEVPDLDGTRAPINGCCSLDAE
Chain of Rhesus PDE2A3 (B3VTJ2 1-941): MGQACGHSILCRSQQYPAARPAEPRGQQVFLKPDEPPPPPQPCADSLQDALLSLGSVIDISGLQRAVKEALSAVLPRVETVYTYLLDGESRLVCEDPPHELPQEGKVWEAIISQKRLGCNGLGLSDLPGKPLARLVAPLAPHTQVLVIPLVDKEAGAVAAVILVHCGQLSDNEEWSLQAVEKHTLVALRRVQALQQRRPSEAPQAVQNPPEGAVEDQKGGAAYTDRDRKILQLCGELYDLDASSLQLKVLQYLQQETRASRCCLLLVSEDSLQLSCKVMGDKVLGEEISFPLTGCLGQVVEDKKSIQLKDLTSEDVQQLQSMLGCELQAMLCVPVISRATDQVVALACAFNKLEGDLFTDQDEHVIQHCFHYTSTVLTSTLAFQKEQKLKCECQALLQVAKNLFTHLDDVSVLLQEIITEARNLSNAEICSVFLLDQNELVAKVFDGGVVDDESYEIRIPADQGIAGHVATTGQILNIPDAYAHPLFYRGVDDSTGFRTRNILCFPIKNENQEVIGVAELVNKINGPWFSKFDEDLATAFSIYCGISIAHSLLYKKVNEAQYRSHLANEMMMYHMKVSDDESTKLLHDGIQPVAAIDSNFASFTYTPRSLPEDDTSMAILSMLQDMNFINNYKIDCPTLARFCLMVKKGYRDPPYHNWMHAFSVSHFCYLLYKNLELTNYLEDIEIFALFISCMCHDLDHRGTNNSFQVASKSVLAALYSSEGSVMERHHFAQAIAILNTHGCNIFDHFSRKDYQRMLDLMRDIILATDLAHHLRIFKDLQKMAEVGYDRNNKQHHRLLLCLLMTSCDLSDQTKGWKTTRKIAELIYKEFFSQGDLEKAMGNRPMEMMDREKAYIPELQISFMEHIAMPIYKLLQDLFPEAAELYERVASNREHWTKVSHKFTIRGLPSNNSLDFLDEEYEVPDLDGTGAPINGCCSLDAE

`CN(C)c1nc2c(c(CO)nn2C(c2ccc(C(F)(F)F)c(F)c2)C2CC2)c(=O)[nH]1` (single isomer, unassigned) [Example 150, (R)- or (S)-1-(Cyclopropyl(3-fluoro-4-(trifluoromelhyl)phenyl)methyl)-6-(dimethylamino)-3-(hydroxymethyl)-1H-pyrazolo[3,4-d]pyrimidin-4(5H)-one]: the Ki in test [1] (setting [3]) and in test [2] (setting [4]) was 0.12 nM in each case.

Turning to `C[C@@H](c1ccc(C(F)(F)F)cc1)n1nc(CO)c2c(=O)[nH]c(N(C)C)nc21` [Example 154, (S)-6-(Dimethylamino)-3-(hydroxymethyl)-1-(1-(4-(trifluoromethyl)phenyl)ethyl)-1H-pyrazolo[3,4-d]pyrimidin-4(5H)-one], the Ki stood at 0.57 nM in test [1] (setting [3]) and 0.55 nM in test [2] (setting [4]).

Regarding `CC(c1ccc(C(F)(F)F)cc1)n1nc(C(F)(F)F)c2c(=O)[nH]c(O)nc21` (single isomer, unassigned) [Example 255, (S)- or (R)-6-Hydroxy-3-(trifluoromethyl)-1-(1-(4-(trifluoromethyl)phenyl)ethyl)-1H-pyrazolo[3,4-d]pyrimidin-4(5H)-one], the Ki stood at 3.7 nM in test [1] (setting [3]) and 2.4 nM in test [2] (setting [4]).

On to `CN(C)c1nc2c(c(CO)nn2C(c2ccc(C(F)F)cc2)C2CC2)c(=O)[nH]1` (single isomer, unassigned) [Example 62], for which the inhibition constant Ki is 0.28 nM in test [1] (setting [3]) and 0.27 nM in test [2] (setting [4]).

As for `Cc1ccc(C(C)n2nc(CCl)c3c(=O)[nH]c(O)nc32)cc1` (centres unmarked) [Example 57, 3-(Chloromethyl)-6-hydroxy-1-(1-p-tolylethyl)-1H-pyrazolo[3,4-d]pyrimidin-4(5H)-one], the inhibitory constant (Ki) amounted to 26 nM in test [1] (setting [5]), 40 nM in test [1] (setting [3]), 11 nM in test [2] (setting [6]) and 28 nM in test [2] (setting [4]).

For the compound `CC(C)C(c1ccc(C(F)(F)F)cc1)n1nc(C(F)F)c2c(=O)[nH]c(O)nc21` (single isomer, unassigned) [Example 281, (R)- or (S)-3-(Difluoromethyl)-6-hydroxy-1-(2-methyl-1-(4-(trifluoromethyl)phenyl)propyl)-1H-pyrazolo[3,4-d]pyrimidin-4(5H)-one], the inhibition constant Ki in test [1] (setting [3]) is 1.2 nM; in test [2] (setting [4]), 1.3 nM.

Regarding `CN(C)c1nc2c(c(CO)nn2C(c2ccc(CC(F)(F)F)cc2)C2CC2)c(=O)[nH]1` (single isomer, unassigned) [Example 87, (S)- or (R)-1-(Cyclopropyl(4-(2,2,2-trifluoroethyl)phenyl)methyl)-6-(dimethylainino)-3-(hydroxymethyl)-1H-pyrazolo[3,4-d]pyrimidin-4(5H)-one], the Ki in test [1] (setting [3]) was found to be 0.4 nM; in test [2] (setting [4]), 0.38 nM.

For `CC(c1ccc(C(C)(F)F)cc1)n1nc(CF)c2c(=O)[nH]c(N(C)C)nc21` (single isomer, unassigned) [Example 195, (S)- or (R)-1-(1-(4-(1,1-Difluoroethyl)phenyl)ethyl)-6-(dimethylamino)-3-(fluoromethyl)-1H-pyrazolo[3,4-d]pyrimidin-4(5H)-one], the values for the Ki in test [1] (setting [3]) and in test [2] (setting [4]) were 0.14 nM and 0.17 nM, respectively.

Regarding `CCC(c1ccc(C(F)F)cc1)n1nc(CO)c2c(=O)[nH]c(N(C)C)nc21` (single isomer, unassigned) [Example 93, (S)- or (R)-1-(1-(4-(Difluoromethyl)phenyl)propyl)-6-(dimethylamino)-3-(hydroxymethyl)-1H-pyrazolo[3,4-d]pyrimidin-4(5H)-one], the Ki came out at 0.55 nM in test [1] (setting [3]) and 0.42 nM in test [2] (setting [4]).

As to `O=c1[nH]c(O)nc2c1c(CO)nn2C1(c2ccc(C(F)(F)F)cc2)CCC1` [Example 26, 6-Hydroxy-3-(hydroxymethyl)-1-(1-(4-(trifluoromethyl)phenyl)cyclobutyl)-1H-pyrazolo[3,4-d]pyrimidin-4(5H)-one], the Ki was found to be 50 nM in test [1] (setting [3]) and 39 nM in test [2] (setting [4]).

As for `CC(C)C(c1ccc(C(C)(C)C)cc1)n1nc(CC(F)(F)F)c2c(=O)[nH]c(O)nc21` (single isomer, unassigned) [Example 260, (R)- or (S)-1-(1-(4-tert-Butylphenyl)-2-methylpropyl)-6-hydroxy-3-(2,2,2-trifluoroethyl)-1H-pyrazolo[3,4-d]pyrimidin-4(5H)-one], the Ki in test [1] (setting [3]) is 26 nM; in test [2] (setting [4]), 25 nM.

Take `CCC(c1ccc(C(C)(F)F)c(F)c1)n1nc(CO)c2c(=O)[nH]c(N(C)C)nc21` (single isomer, unassigned) [Example 112, (R)- or (S)-1-(1-(4-(1,1-Difluoroethyl)-3-fluorophenyl)propyl)-6-(dimethylamino)-3-(hydroxymethyl)-1H-pyrazolo[3,4-d]pyrimidin-4(5H)-one]: the values for the inhibitory constant (Ki) in test [1] (setting [3]) and in test [2] (setting [4]) were 1.1 nM and 0.84 nM, respectively.

On to `O=c1[nH]c(O)nc2c1c(C(F)F)nn2C(c1ccc(C(F)(F)F)cc1)C1CC1` (single isomer, unassigned) [Example 279, (R)- or (S)-1-(Cyclopropyl(4-(trifluoromethyl)phenyl)methyl)-3-(difluoromethyl)-6-hydroxy-1H-pyrazolo[3,4-d]pyrimidin-4(5H)-one], for which the values for the Ki in test [1] (setting [3]) and in test [2] (setting [4]) were 1.8 nM and 1.9 nM, respectively.

Turning to `COc1nc2c(c(C)nn2C(C)c2ccc(C(F)(F)F)cc2)c(=O)[nH]1` (centres unmarked) [Example 59, 6-Methoxy-3-methyl-1-{1-[4-(trifluoromethyl)phenyl]ethyl}-1,5-dihydro-4H-pyrazolo[3,4-d]pyrimidin-4-one], the Ki in test [1] (setting [5]) is 1140 nM; in test [2] (setting [6]), 760 nM.

Take `CN(C)c1nc2c(c(CF)nn2C(c2ccc(C(C)(F)F)cc2)C2CC2)c(=O)[nH]1` (single isomer, unassigned) [Example 212, (R)- or (S)-1-(Cyclopropyl(4-(1,1-difluoroethyl)phenyl)methyl)-6-(dimethylamino)-3-(fluoromethyl)-1H-pyrazolo[3,4-d]pyrimidin-4(5H)-one]: the results for the Ki in test [1] (setting [3]) and in test [2] (setting [4]) were 0.91 nM and 0.61 nM, respectively.

Turning to `CC(C)C(c1ccc(C(F)(F)F)cc1F)n1nc(CF)c2c(=O)[nH]c(N(C)C)nc21` (single isomer, unassigned) [Example 200, (R)- or (S)-6-(Dimethylamino)-1-(1-(2-fluoro-4-(trifluoromethyl)phenyl)-2-methylpropyl)-3-(fluoromethyl)-1H-pyrazolo[3,4-d]pyrimidin-4(5H)-one], the values for the inhibitory constant (Ki) in test [1] (setting [3]) and in test [2] (setting [4]) were 0.07 nM and 0.041 nM, respectively.

As to `CC(c1ccc(C(F)F)cc1)n1nc(CO)c2c(=O)[nH]c(N(C)C)nc21` (single isomer, unassigned) [Example 83, (S)- or (R)-1-(1-(4-(Difluoromethyl)phenyl)ethyl)-6-(dimethylamino)-3-(hydroxymethyl)-1H-pyrazolo[3,4-d]pyrimidin-4(5H)-one], the Ki in test [1] (setting [3]) was 1.1 nM; in test [2] (setting [4]), 0.86 nM.

For the compound `CC(c1ccc(OC(F)(F)F)c(F)c1)n1nc(C(F)F)c2c(=O)[nH]c(O)nc21` (single isomer, unassigned) [Example 287, (R)- or (S)-3-(Difluoromethyl)-1-(1-(3-fluoro-4-(trifluoromethoxy)phenyl)ethyl)-6-hydroxy-1H-pyrazolo[3,4-d]pyrimidin-4(5H)-one], the inhibitory constant (Ki) is 44 nM in test [1] (setting [3]) and 38 nM in test [2] (setting [4]).

In the case of `CC(C)C(c1ccc(C(F)(F)F)c(F)c1)n1nc(CC(F)(F)F)c2c(=O)[nH]c(O)nc21` (single isomer, unassigned) [Example 258], the inhibition constant Ki worked out at 10 nM in test [1] (setting [3]) and 9.7 nM in test [2] (setting [4]).

Take `CC(c1ccc(OC(F)(F)F)c(F)c1)n1nc(CO)c2c(=O)[nH]c(N(C)C)nc21` (single isomer, unassigned) [Example 84, (R)- or (S)-6-(Dimethylamino)-1-(1-(3-fluoro-4-(trifluoromethoxy)phenyl)ethyl)-3-(hydroxymethyl)-1H-pyrazolo[3,4-d]pyrimidin-4(5H)-one]: the Ki was found to be 1 nM in test [1] (setting [3]) and 0.68 nM in test [2] (setting [4]).

In the case of `C[C@@H](c1ccc(C(C)(C)C)cc1)n1nc(CF)c2c(=O)[nH]c(O)nc21` [Example 47, (S)-1-(1-(4-tert-Butylphenyl)ethyl)-3-(fluoromethyl)-6-hydroxy-1H-pyrazolo[3,4-d]pyrimidin-4(5H)-one], the inhibition constant Ki was found to be 6.9 nM in test [1] (setting [3]) and 5.1 nM in test [2] (setting [4]).

Turning to `CC(C)C(c1ccc(C(C)(F)F)cc1)n1nc(CO)c2c(=O)[nH]c(N(C)C)nc21` (single isomer, unassigned) [Example 139, (S)- or (R)-1-(1-(4-(1,1-Difluoroethyl)phenyl)-2-methylpropyl)-6-(dimethylamino)-3-(hydroxymethyl)-1H-pyrazolo[3,4-d]pyrimidin-4(5H)-one], the Ki in test [1] (setting [3]) was found to be 0.04 nM; in test [2] (setting [4]) it was 0.064 nM.

In the case of `CN(C)c1nc2c(c(CO)nn2C(c2ccc(C(F)(F)F)c(F)c2)C2CC2)c(=O)[nH]1` (single isomer, unassigned) [Example 151, (S)- or (R)-1-(Cyclopropyl(3-fluoro-4-(trifluoromethyl)phenyl)methyl)-6-(dimethylamino)-3-(hydroxymethyl)-1H-pyrazolo[3,4-d]pyrimidin-4(5H)-one], the Ki came out at 0.79 nM in test [1] (setting [3]) and 0.61 nM in test [2] (setting [4]).

For the compound `CCC(c1ccc(C(C)(F)F)c(F)c1)n1nc(CF)c2c(=O)[nH]c(N(C)C)nc21` (single isomer, unassigned) [Example 216, (R)- or (S)-1-(1-(4-(1,1-Difluoroethyl)-3-fluorophenyl)propyl)-6-(dimethylamino)-3-(fluoromethyl)-1H-pyrazolo[3,4-d]pyrimidin-4(5H)-one], the Ki in test [1] (setting [3]) was found to be 1.4 nM; in test [2] (setting [4]), 1.1 nM.
